Test results taken from US20260130395A1, “Water Dispersible Botanical Compositions” (Aquila Black Limited, priority 2021, published 2026).

Assay: Stability of cannabinoid compounds and Vitamin E components in Beverage 1 (AB White) by LCMSMS
Assay type: physicochemical
Settings: for Stability of Plant-Derived Cannabinoid Compounds in AB White, 8° C.: AB White stored at 8° C.; for Stability of Plant-Derived Cannabinoid Compounds in AB White, 21-25° C.: AB White stored at 21-25° C.

SMILES: C=C(C)[C@@H]1CCC(C)=C[C@H]1c1c(O)cc(CCC)cc1O [CBDV, cannabidivarin]
- Stability of Plant-Derived Cannabinoid Compounds in AB White, 8° C. (0 days): 0.150 µg/mL
- Stability of Plant-Derived Cannabinoid Compounds in AB White, 8° C. (1 days): 0.146 µg/mL
- Stability of Plant-Derived Cannabinoid Compounds in AB White, 8° C. (2 days): 0.147 µg/mL
- Stability of Plant-Derived Cannabinoid Compounds in AB White, 8° C. (3 days): 0.146 µg/mL
- Stability of Plant-Derived Cannabinoid Compounds in AB White, 8° C. (5 days): 0.147 µg/mL
- Stability of Plant-Derived Cannabinoid Compounds in AB White, 8° C. (8 days): 0.148 µg/mL
- Stability of Plant-Derived Cannabinoid Compounds in AB White, 8° C. (9 days): 0.146 µg/mL
- Stability of Plant-Derived Cannabinoid Compounds in AB White, 8° C. (10 days): 0.148 µg/mL
- Stability of Plant-Derived Cannabinoid Compounds in AB White, 8° C. (11 days): 0.150 µg/mL
- Stability of Plant-Derived Cannabinoid Compounds in AB White, 8° C. (12 days): 0.150 µg/mL
- Stability of Plant-Derived Cannabinoid Compounds in AB White, 8° C. (15 days): 0.150 µg/mL
- Stability of Plant-Derived Cannabinoid Compounds in AB White, 8° C. (16 days): 0.148 µg/mL
- Stability of Plant-Derived Cannabinoid Compounds in AB White, 8° C. (17 days): 0.146 µg/mL
- Stability of Plant-Derived Cannabinoid Compounds in AB White, 8° C. (18 days): 0.146 µg/mL
- Stability of Plant-Derived Cannabinoid Compounds in AB White, 8° C. (19 days): 0.149 µg/mL
- Stability of Plant-Derived Cannabinoid Compounds in AB White, 8° C. (22 days): 0.149 µg/mL
- Stability of Plant-Derived Cannabinoid Compounds in AB White, 8° C. (23 days): 0.149 µg/mL
- Stability of Plant-Derived Cannabinoid Compounds in AB White, 8° C. (24 days): 0.147 µg/mL
- Stability of Plant-Derived Cannabinoid Compounds in AB White, 8° C. (25 days): 0.149 µg/mL
- Stability of Plant-Derived Cannabinoid Compounds in AB White, 8° C. (26 days): 0.152 µg/mL
- Stability of Plant-Derived Cannabinoid Compounds in AB White, 8° C. (29 days): 0.151 µg/mL
- Stability of Plant-Derived Cannabinoid Compounds in AB White, 8° C. (30 days): 0.148 µg/mL
- Stability of Plant-Derived Cannabinoid Compounds in AB White, 8° C. (60 days): 0.143 µg/mL
- Stability of Plant-Derived Cannabinoid Compounds in AB White, 8° C. (90 days): 0.146 µg/mL
- Stability of Plant-Derived Cannabinoid Compounds in AB White, 8° C. (120 days): 0.144 µg/mL
- Stability of Plant-Derived Cannabinoid Compounds in AB White, 8° C. (150 days): 0.150 µg/mL
- Stability of Plant-Derived Cannabinoid Compounds in AB White, 8° C. (180 days): 0.150 µg/mL
- Stability of Plant-Derived Cannabinoid Compounds in AB White, 8° C. (210 days): 0.147 µg/mL
- Stability of Plant-Derived Cannabinoid Compounds in AB White, 8° C. (240 days): 0.145 µg/mL
- Stability of Plant-Derived Cannabinoid Compounds in AB White, 8° C. (270 days): 0.143 µg/mL
- Stability of Plant-Derived Cannabinoid Compounds in AB White, 8° C. (300 days): 0.143 µg/mL
- Stability of Plant-Derived Cannabinoid Compounds in AB White, 8° C. (330 days): 0.146 µg/mL
- Stability of Plant-Derived Cannabinoid Compounds in AB White, 8° C. (360 days): 0.145 µg/mL
- Stability of Plant-Derived Cannabinoid Compounds in AB White, 8° C. (390 days): 0.143 µg/mL
- Stability of Plant-Derived Cannabinoid Compounds in AB White, 8° C. (420 days): 0.144 µg/mL
- Stability of Plant-Derived Cannabinoid Compounds in AB White, 8° C. (450 days): 0.145 µg/mL
- Stability of Plant-Derived Cannabinoid Compounds in AB White, 8° C. (480 days): 0.143 µg/mL
- Stability of Plant-Derived Cannabinoid Compounds in AB White, 8° C. (510 days): 0.138 µg/mL
- Stability of Plant-Derived Cannabinoid Compounds in AB White, 8° C. (540 days): 0.139 µg/mL
- Stability of Plant-Derived Cannabinoid Compounds in AB White, 8° C. (570 days): 0.138 µg/mL
- Stability of Plant-Derived Cannabinoid Compounds in AB White, 21-25° C. (0 days): 0.150 µg/mL
- Stability of Plant-Derived Cannabinoid Compounds in AB White, 21-25° C. (1 days): 0.149 µg/mL
- Stability of Plant-Derived Cannabinoid Compounds in AB White, 21-25° C. (2 days): 0.148 µg/mL
- Stability of Plant-Derived Cannabinoid Compounds in AB White, 21-25° C. (3 days): 0.149 µg/mL
- Stability of Plant-Derived Cannabinoid Compounds in AB White, 21-25° C. (5 days): 0.144 µg/mL
- Stability of Plant-Derived Cannabinoid Compounds in AB White, 21-25° C. (8 days): 0.145 µg/mL
- Stability of Plant-Derived Cannabinoid Compounds in AB White, 21-25° C. (9 days): 0.148 µg/mL
- Stability of Plant-Derived Cannabinoid Compounds in AB White, 21-25° C. (10 days): 0.147 µg/mL
- Stability of Plant-Derived Cannabinoid Compounds in AB White, 21-25° C. (11 days): 0.150 µg/mL
- Stability of Plant-Derived Cannabinoid Compounds in AB White, 21-25° C. (12 days): 0.152 µg/mL
- Stability of Plant-Derived Cannabinoid Compounds in AB White, 21-25° C. (15 days): 0.151 µg/mL
- Stability of Plant-Derived Cannabinoid Compounds in AB White, 21-25° C. (16 days): 0.145 µg/mL
- Stability of Plant-Derived Cannabinoid Compounds in AB White, 21-25° C. (17 days): 0.150 µg/mL
- Stability of Plant-Derived Cannabinoid Compounds in AB White, 21-25° C. (18 days): 0.151 µg/mL
- Stability of Plant-Derived Cannabinoid Compounds in AB White, 21-25° C. (19 days): 0.148 µg/mL
- Stability of Plant-Derived Cannabinoid Compounds in AB White, 21-25° C. (22 days): 0.148 µg/mL
- Stability of Plant-Derived Cannabinoid Compounds in AB White, 21-25° C. (23 days): 0.148 µg/mL
- Stability of Plant-Derived Cannabinoid Compounds in AB White, 21-25° C. (24 days): 0.145 µg/mL
- Stability of Plant-Derived Cannabinoid Compounds in AB White, 21-25° C. (25 days): 0.145 µg/mL
- Stability of Plant-Derived Cannabinoid Compounds in AB White, 21-25° C. (26 days): 0.149 µg/mL
